Here are results for 7 molecules from patent US20090069321A1, “CYANOMETHYL SUBSTITUTED N-ACYL TRYPTAMINES” (priority 2007, published 2009).

A word on the IC50: it is the midpoint of a concentration-inhibition curve.

The assay concerns the target T1, human FSH receptor (Homo sapiens, UniProt P23945).
T1 construct: expressed in transfected cells; host or cells: CHO cells (hFSHR clone 16)
T1 sequence (P23945 18-695): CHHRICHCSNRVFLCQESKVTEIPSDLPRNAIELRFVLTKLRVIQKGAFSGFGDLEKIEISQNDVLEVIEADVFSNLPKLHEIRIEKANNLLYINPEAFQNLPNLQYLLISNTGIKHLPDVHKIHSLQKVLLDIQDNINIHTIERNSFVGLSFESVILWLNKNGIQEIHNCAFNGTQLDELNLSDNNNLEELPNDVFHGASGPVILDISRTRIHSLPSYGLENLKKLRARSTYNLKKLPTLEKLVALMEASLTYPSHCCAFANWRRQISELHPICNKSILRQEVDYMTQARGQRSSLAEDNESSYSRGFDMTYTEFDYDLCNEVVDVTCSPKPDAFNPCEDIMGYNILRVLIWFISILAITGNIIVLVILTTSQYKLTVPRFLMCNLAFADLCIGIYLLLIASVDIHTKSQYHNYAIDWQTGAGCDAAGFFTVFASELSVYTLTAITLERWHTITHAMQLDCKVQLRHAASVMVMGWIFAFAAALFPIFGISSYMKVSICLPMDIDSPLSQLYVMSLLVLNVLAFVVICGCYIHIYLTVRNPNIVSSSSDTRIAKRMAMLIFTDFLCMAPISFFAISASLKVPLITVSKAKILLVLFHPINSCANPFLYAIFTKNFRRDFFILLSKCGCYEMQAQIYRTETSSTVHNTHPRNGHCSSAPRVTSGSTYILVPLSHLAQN
Kind of assay: HTRF assay for measuring cAMP in cells (FSH antagonism). The assay is classed as cell-based. As to conditions: hFSHR clone 16 cells (CHO cells stably transfected with the human FSH receptor); in the presence of 1e-9 mol/l hFSH; 37° C. for 2 h; read-out: IC50, FSH antagonistic effect in the HTRF assay. As for the experimental part:
HTRF Assay for Measuring cAMP in Cells
The method is based on a competitive immunoassay between native cAMP, which has been produced by the cells, and cAMP which is labelled with cAMPD2 conjugate. The tracer binding was visualized by a monoclonal antibody, anti-cAMP labelled with cryptate [HTRF=homogeneous time-resolved fluorescence].
The specific signal is inversely proportional to the cAMP concentration of the samples employed.
The 665 nm/620 nm fluorescence ratio was evaluated.
The following material was used: 96-well plates for the tissue culture, 96-well plates with black edge and black base (e.g. Fluotrac 600 from Greiner), 96-well plates for the substance dilutions of polypropylene and cAMP Femtomolar (4000wells Kit, CIS Bio International # 62AM5PEJ).
The following reagents were used: BSA (bovine serum albumin) Fraction V protease-free, IBMX (3-isobutyl-1-methylxanthine), hFSH (human follicle stimulating hormone), Triton X-100 analytical grade, potassium fluoride analytical grade, G 418 (Geneticin) and Accutase.
Buffer 1 (washing and testing buffer) contained PBS, 1 mM CaCl2, 1 mM MgCl2, 0.2% glucose; 0.1% BSA, 1 mM IBMX.
Buffer 2 (2× lysis buffer) contained 1% Triton X-100 in PBS (without CaCl2 and MgCl2).
Buffer 3 (assay buffer) contained 50 mM potassium phosphate buffer (pH 7.0); 800 mM potassium fluoride; 0.2% BSA (always added fresh).
On day 1, the cells were seeded in 96-well plates (3×10^4 cells per well hFSHR clone 16 cells (CHO cells stably transfected with the human FSH receptor in 150 μl of medium). The next day, test substance dilutions were made up. For this purpose, all the substances were diluted in ice-cold buffer 1 (with or without hFSH), and the substance dilutions were placed on ice until applied to the cells.
The cell supernatant was then aspirated off, and the cells were washed 2× with 200 μl of buffer 1. The cells were treated with 60 μl of the appropriate substance concentrations at 37° C. for 2 h. The cells were then lysed with 60 μl of buffer 2 (put onto the supernatant) (on a plate shaker at RT for 30 min).
The test conjugates (cAMP-D2 and anti-cAMP cryptate, CIS Bio) were diluted in buffer 3 in accordance with the manufacturers' information. The actual mixture for measurement was pipetted into a black 96-well plate (in each case 15 μl of the cell lysate diluted with 35 μl of buffer 1; firstly 25 μl of cAMP-D2 conjugate were pipetted and, after 10 min, 25 μl of the anti-cAMP cryptate were added). This is followed by incubation at RT for 90 minutes. The measurement was carried out in a PheraStar (BMG).
Tissue Culture Conditions
Dose-effect curve (hFSH) for the human receptor: 1e-8, 3e-9, 1e-9, 3e-10, 1e-10, 3e-11, 1e-11, 3e-12 mol/l.
The test substances were employed in suitable dilutions in the absence (test for agonism) and in the presence of 1e-9 mol/l hFSH.
The values of the well ratio were averaged and then entered directly in SigmaPlot versus the concentrations. The maximum and minimum values were determined for each plate, and half the difference is to be regarded as IC50.
Turning to `CNC(=O)c1cc(F)cc(-c2ccc(OC(C)C)c(C(=O)NC(CC#N)Cc3c[nH]c4ccccc34)c2)c1` (stereo not shown) [Example 1, 5′-Fluoro-4-isopropoxy-biphenyl-3,3′-dicarboxylic acid 3-{[2-cyano-1-(1H-indol-3-ylmethyl)-ethyl]-amide}3′-methylamide], the IC50 is 3.5 µM.
For the molecule `Cc1cc(C(N)=O)ccc1C#Cc1ccc(OC(F)(F)F)c(C(=O)NC(CC#N)Cc2c[nH]c3ccccc23)c1` (stereo not shown) [Example 4, 5-(4-Carbamoyl-2-methylphenylethynyl)-N-[2-cyano-1-(1H-indol-3-ylmethyl)-ethyl]-2-trifluoromethoxy-benzamide], the 50% inhibitory concentration (IC50) was determined as 0.25 µM.
Then `CC(C)Oc1ccc(-c2ccc(C(=O)N3CCOCC3)c(Cl)c2)cc1C(=O)NC(CC#N)Cc1c[nH]c2ccccc12` (stereo not shown) [Example 6, 3′-Chloro-4-isopropoxy-4′-(morpholine-4-carbonyl)-biphenyl-3-carboxylic acid [2-cyano-1-(1H-indol-3-ylmethyl)-ethyl]-amide], with 0.08 µM; and `CC(C)Oc1ccc(C#Cc2ccc(C(N)=O)cc2)cc1C(=O)NC(CC#N)Cc1c[nH]c2ccccc12` (stereo not shown) [Example 8, 5-(4-Carbamoyl-phenylethynyl)-N-[2-cyano-1-(1H-indol-3-ylmethyl)-ethyl]-2-isopropoxy-benzamide], with 0.2 µM.
Take `CNC(=O)c1ccc(C#Cc2ccc(OC(C)C)c(C(=O)NC(CC#N)Cc3c[nH]c4ccccc34)c2)cc1` (stereo not shown) [Example 9, N-[2-Cyano-1-(1H-indol-3-ylmethyl)-ethyl]-2-isopropoxy-5-(4-methylcarbamoyl-phenylethynyl)-benzamide]: the IC50 turned out to be 0.75 µM.
The same measure for `CNC(=O)c1cccc(C#Cc2ccc(OC(C)C)c(C(=O)NC(CC#N)Cc3c[nH]c4ccccc34)c2)c1` (stereo not shown) [Example 10, N-[2-Cyano-1-(1H-indol-3-ylmethyl)-ethyl]-2-isopropoxy-5-(3-methylcarbamoyl-phenylethynyl)-benzamide]: 3.5 µM.
Regarding `CNC(=O)c1ccccc1C#Cc1ccc(OC(C)C)c(C(=O)NC(CC#N)Cc2c[nH]c3ccccc23)c1` (stereo not shown) [Example 11, N-[2-Cyano-1-(1H-indol-3-ylmethyl)-ethyl]-2-isopropoxy-5-(2-methylcarbamoyl-phenylethynyl)-benzamide], the IC50 came to 10 µM.
